Experimental findings from ChEMBL document CHEMBL5724914, “Linking interpersonal differences in gut microbiota composition and drug biotransformation activity” (2024) are described below.

The nature of data set [1]: The drug is tested on Z-029 corresponding to rat gut metagenome with ENA study accession number: PRJEB37062 and ENA sample accession number: ERS12561828 for biotransformation under anaerobic condition. The drug concentrations were measured over 9 timepoints collected between 0 and 24 hours of incubation by liquid-chromatography-coupled mass spectrometry (LC–MS). Conditions: 2 µM.

Data set [2] in a line: The drug is tested on Z-028 corresponding to mouse gut metagenome with ENA study accession number: PRJEB37062 and ENA sample accession number: ERS12561827 for biotransformation under anaerobic condition. The drug concentrations were measured over 9 timepoints collected between 0 and 24 hours of incubation by liquid-chromatography-coupled mass spectrometry (LC–MS). Conditions: 2 µM.

A short description of data set [3]: The drug is tested on Z-024 corresponding to pig gut metagenome with ENA study accession number: PRJEB37062 and ENA sample accession number: ERS12561823 for biotransformation under anaerobic condition. The drug concentrations were measured over 9 timepoints collected between 0 and 24 hours of incubation by liquid-chromatography-coupled mass spectrometry (LC–MS). The settings on record: 2 µM.

Data set [4] can be described thus: The drug is tested on Z-020 corresponding to rabbit gut metagenome with ENA study accession number: PRJEB37062 and ENA sample accession number: ERS12561819 for biotransformation under anaerobic condition. The drug concentrations were measured over 9 timepoints collected between 0 and 24 hours of incubation by liquid-chromatography-coupled mass spectrometry (LC–MS). Conditions: 2 µM.

The nature of data set [5]: The drug is tested on Z-018 corresponding to pig gut metagenome with ENA study accession number: PRJEB37062 and ENA sample accession number: ERS12561817 for biotransformation under anaerobic condition. The drug concentrations were measured over 9 timepoints collected between 0 and 24 hours of incubation by liquid-chromatography-coupled mass spectrometry (LC–MS). Conditions: 2 µM.

Data set [6] is described as follows: The drug is tested on Z-012 corresponding to metagenome with ENA study accession number: PRJEB37062 and ENA sample accession number: ERS12561812 for biotransformation under anaerobic condition. The drug concentrations were measured over 9 timepoints collected between 0 and 24 hours of incubation by liquid-chromatography-coupled mass spectrometry (LC–MS). Conditions: 2 µM.

The nature of data set [7]: The drug is tested on Z-011 corresponding to mouse gut metagenome with ENA study accession number: PRJEB37062 and ENA sample accession number: ERS12561811 for biotransformation under anaerobic condition. The drug concentrations were measured over 9 timepoints collected between 0 and 24 hours of incubation by liquid-chromatography-coupled mass spectrometry (LC–MS). Conditions: 2 µM.

Data set [8] is described as follows: The drug is tested on Z-001 corresponding to mouse gut metagenome with ENA study accession number: PRJEB37062 and ENA sample accession number: ERS12561801 for biotransformation under anaerobic condition. The drug concentrations were measured over 9 timepoints collected between 0 and 24 hours of incubation by liquid-chromatography-coupled mass spectrometry (LC–MS). The settings on record: 2 µM.

Data set [9] is described as follows: The drug is tested on WLS-220 corresponding to human gut metagenome with ENA study accession number: PRJEB37062 and ENA sample accession number: ERS12561769 for biotransformation under anaerobic condition. The drug concentrations were measured over 9 timepoints collected between 0 and 24 hours of incubation by liquid-chromatography-coupled mass spectrometry (LC–MS). The settings on record: 2 µM.

Data set [10] is described as follows: The drug is tested on WLS-082 corresponding to human gut metagenome with ENA study accession number: PRJEB37062 and ENA sample accession number: ERS12561751 for biotransformation under anaerobic condition. The drug concentrations were measured over 9 timepoints collected between 0 and 24 hours of incubation by liquid-chromatography-coupled mass spectrometry (LC–MS). Conditions: 2 µM.

The nature of data set [11]: The drug is tested on WLS-069 corresponding to human gut metagenome with ENA study accession number: PRJEB37062 and ENA sample accession number: ERS12561748 for biotransformation under anaerobic condition. The drug concentrations were measured over 9 timepoints collected between 0 and 24 hours of incubation by liquid-chromatography-coupled mass spectrometry (LC–MS). The settings on record: 2 µM.

A short description of data set [12]: The drug is tested on WLS-052 corresponding to human gut metagenome with ENA study accession number: PRJEB37062 and ENA sample accession number: ERS12561747 for biotransformation under anaerobic condition. The drug concentrations were measured over 9 timepoints collected between 0 and 24 hours of incubation by liquid-chromatography-coupled mass spectrometry (LC–MS). The settings on record: 2 µM.

Data set [13] in a line: The drug is tested on WLS-010 corresponding to human gut metagenome with ENA study accession number: PRJEB37062 and ENA sample accession number: ERS12561743 for biotransformation under anaerobic condition. The drug concentrations were measured over 9 timepoints collected between 0 and 24 hours of incubation by liquid-chromatography-coupled mass spectrometry (LC–MS). Conditions: 2 µM.

The conditions of data set [14]: human gut metagenome, 24 h, 2 µM.
For data set [15] the following is noted: human gut metagenome, 24 h, 2 µM. The source holds these as a separate data set.
The conditions of data set [16]: human gut metagenome, 24 h, 2 µM. This is another data set of the same source.
For data set [17] the following is noted: human gut metagenome, 24 h, 2 µM. The source holds these as a separate data set.
For data set [18] the following is noted: human gut metagenome, 24 h, 2 µM. This is another data set of the same source.
For data set [19] the following is noted: human gut metagenome, 24 h, 2 µM. This is another data set of the same source.
The conditions of data set [20]: human gut metagenome, 24 h, 2 µM. This is another data set of the same source.
Also: call rule not given here.

As for `OCCN1CCN(CCCN2c3ccccc3Sc3ccc(C(F)(F)F)cc32)CC1` [FLUPHENAZINE], the “Bacterial Biotransformation” value in data set [1] is on record as “Compound NOT metabolized”; in data set [2] it was “Compound metabolized”; in [3] it was “Compound metabolized”; in data set [4], “Compound NOT metabolized”; in data set [5], “Compound NOT metabolized”; in data set [6] it was “Compound metabolized”. The “Bacterial Biotransformation” value in data set [7], in data set [8], in data set [9], in data set [10], in data set [11] and in data set [12] was “Compound metabolized” each time. Moreover, the “Bacterial Biotransformation” value is recorded as “Compound metabolized” in data set [13]; “Compound NOT metabolized” in data set [14]; “Compound metabolized” in data set [15]; “Compound metabolized” in data set [16]; “Compound metabolized” in data set [17]; “Compound metabolized” in data set [18]. For the same compound, the “Bacterial Biotransformation” value in data set [19] is given as “Compound metabolized”; in [20], “Compound NOT metabolized”.

On to `COc1ccc2c3c1O[C@H]1C[C@@H](O)C=C[C@@]31CCN(C)C2` [GALANTAMINE], for which the “Bacterial Biotransformation” value in data set [1], in data set [2], in data set [3], in data set [4], in [5] and in data set [6] was “Compound NOT metabolized” throughout. Further, the “Bacterial Biotransformation” value in [7] is reported as “Compound NOT metabolized”; in data set [8], “Compound NOT metabolized”; in data set [9], “Compound metabolized”; in data set [10] it was “Compound NOT metabolized”; in [11] it was “Compound NOT metabolized”; in [12], “Compound NOT metabolized”. Also, the “Bacterial Biotransformation” value is listed as “Compound metabolized” in data set [13]; “Compound metabolized” in data set [14]; “Compound NOT metabolized” in data set [15]; “Compound metabolized” in data set [16]; “Compound metabolized” in data set [17]; “Compound NOT metabolized” in data set [18]. In addition, the “Bacterial Biotransformation” value was “Compound metabolized” in data set [19] and “Compound NOT metabolized” in [20].

As for `Cc1ccc(S(=O)(=O)NC(=O)NN2CC3CCCC3C2)cc1` (stereo not given) [GLICLAZIDE], the “Bacterial Biotransformation” value in data set [1] is listed as “Compound NOT metabolized”; in data set [2] it was “Compound metabolized”; in data set [3], “Compound metabolized”; in data set [4], “Compound metabolized”; in data set [5] it was “Compound metabolized”; in data set [6], “Compound metabolized”. Moreover, the “Bacterial Biotransformation” value in data set [7], in data set [8], in data set [9], in data set [10], in [11] and in data set [12] was “Compound metabolized” throughout. For the same compound, the “Bacterial Biotransformation” value in data set [13], in [14], in data set [15], in data set [16], in data set [17] and in data set [18] was “Compound metabolized” each time. Besides, the “Bacterial Biotransformation” value in data set [19] is recorded as “Compound metabolized”; in data set [20], “Compound NOT metabolized”.

For `COC1=CC(=O)C[C@@H](C)[C@]12Oc1c(Cl)c(OC)cc(OC)c1C2=O` [GRISEOFULVIN], the “Bacterial Biotransformation” value in data set [1] is recorded as “Compound NOT metabolized”; in data set [2], “Compound metabolized”; in data set [3], “Compound metabolized”; in [4], “Compound NOT metabolized”; in data set [5], “Compound metabolized”; in data set [6], “Compound metabolized”. Also, the “Bacterial Biotransformation” value in [7], in data set [8], in [9], in data set [10], in [11] and in data set [12] was “Compound metabolized” in each case. In addition, the “Bacterial Biotransformation” value in [13], in data set [14], in data set [15], in data set [16], in [17] and in data set [18] was “Compound metabolized” in each case. Moreover, the “Bacterial Biotransformation” value in [19] and in data set [20] was “Compound metabolized” in each case.

For `N#Cc1ccc(C(c2ccc(C#N)cc2)n2cncn2)cc1` [LETROZOLE], the “Bacterial Biotransformation” value in data set [1] is “Compound metabolized”; in [2], “Compound NOT metabolized”; in data set [3], “Compound metabolized”; in data set [4], “Compound NOT metabolized”; in [5] it was “Compound NOT metabolized”; in data set [6], “Compound NOT metabolized”. Further, the “Bacterial Biotransformation” value in data set [7], in [8], in [9], in [10], in data set [11] and in [12] was “Compound NOT metabolized” throughout. Besides, the “Bacterial Biotransformation” value in [13], in data set [14], in data set [15], in data set [16], in data set [17] and in data set [18] was “Compound NOT metabolized” each time. Also, the “Bacterial Biotransformation” value in data set [19] and in data set [20] was “Compound NOT metabolized” each time.
